Literature values as cited in patent US20100104643A1, “PHARMACEUTICAL COMPOSITIONS” (ZYSIS LIMITED, priority 2007, published 2010).

How the values were obtained:
[1] = for dose-concentration relationship: plasma concentrations
[2] = trimipramine antidepressant treatment

In the case of `CNCC(C)CN1c2ccccc2CCc2ccccc21` (stereo not drawn) [desmethyltrimipramine], the dose-concentration relationship [1] is listed as “deviation from linearity within the therapeutic dose range” and the “upper limit of the therapeutic trough plasma concentrations” value [2] is listed as 0.38 mg/L.
For `CC(CN(C)C)CN1c2ccccc2CCc2ccccc21` (stereo not drawn) [trimipramine, 10,11-Dihydro-5-(3-dimethylamino-2-methylpropyl)-5H-dibenz(b,f) azepine], the “bioavailability difference between poor and ultra-fast metabolizers” value ([1]; CYP2D6 genotypes) is listed as 6 fold, the “mean systemic clearances, ultrarapid metabolizers of CYP2D6 substrates versus poor metabolizers” value ([1]; higher in ultrarapid than in poor metabolizers) is listed as 2.5 fold and the dose-concentration relationship [1] is listed as “linear dose-concentration relationship for doses up to 150 mg”. The “total oral clearance, low extreme” value ([1]; poor metabolizer group) was 3.5 L/h, the “difference in total oral clearance” value ([1]; poor versus ultrarapid CYP2D6 metabolizers) was “about 15 fold” and the “total oral clearance, high extreme” value ([1]; ultrarapid metabolizer group) was 712.6 L/h. For the same molecule, the “upper limit of the therapeutic trough plasma concentrations” value [2] was 0.24 mg/L.
